Data from ChEMBL document CHEMBL3507680, “University of Dundee, Gates Library screen for HepG2 cell viability”.

Assay: Human HepG2 cell viability assay in 384 well format
Assay type: toxicity, cell-based
Design: dose 125 nL, time 70.5 hour; cytotoxicity at 70.5 h: concentration not given beside the values
Conditions: HepG2 cells, read-out: Inhibition

SMILES | cytotoxicity at 70.5 h [%]
CN1CCCN(CCCNC2CCc3cc4c(cc32)OCCO4)CC1 (configuration not stated) | 8.36
CC(C)C(=O)N1CCC(C)(c2cc(O)[nH]n2)CC1 | 20
CCOCc1ncn2c1CN(S(=O)(=O)c1ccc(C)cc1)CC2 | 35.9
CCOC(=O)C1(O)CCN(C(=O)Nc2ccc(CC)cc2)CC1 | -4.17
O=c1cc2c(nn1CN1CCN(c3cccc(Cl)c3)CC1)CCC2 | -6.87
O=C1CSc2ccccc2N1CC(=O)N1CCCCC1c1nccs1 (configuration not stated) | -8.8
Cc1cc(F)ccc1S(=O)(=O)NCC(O)c1cccn1C (configuration not stated) | 0.803
CNc1ncc(C(=O)N2CCC(CCc3ccccc3)CC2)cn1 | 13.7
COCc1cccc(CNCc2c(C)nn(C)c2N2CCOCC2)c1 | -12.5
CC(NC(=O)Nc1ccc(F)c(F)c1)c1nc[nH]n1 (configuration not stated) | -2.38
CCCn1ccnc1CN1C[C@@H](NC(C)=O)[C@H](c2ccc(C)cc2)C1 | -0.633
O=C(NS(=O)(=O)c1cc(Cl)sc1Cl)c1cccc2c1OCCO2 | 1.61
COc1c(C)cnc(CN2CCOC(Cn3cncn3)C2)c1C (configuration not stated) | -3.24
CN1C(Cn2cccn2)C[C@@H]2CN(Cc3ccccn3)CC[C@@H]21 (some centres not stated) | -10.5
Cc1cnn(CC2CCCN2CC(=O)N(C)Cc2ccsc2)c1 (configuration not stated) | -2.74
COc1cc(C(=O)NC(C)(C)CN2CCN(C)CC2)c2ccccc2n1 | -11.5
COCCN(CCc1ccccc1)Cc1nc2c(cnn2C)c(=O)[nH]1 | -3.4
CCc1nc(NC2CCCN(C(=O)c3cccs3)C2)c2cnn(C)c2n1 (configuration not stated) | 7.73
COc1ccc(-c2noc(-c3ccc(N4CCC[C@H]4CO)nc3)n2)cc1 | 10.2
CNC(=O)C1CCN(Cc2cc3c(cc2O)CCC3)CC1 | 27
COc1c(CNCc2ccc(N3CCOCC3)nc2)c(C)nn1C | -5.76

SMILES | cytotoxicity at 70.5 h [%]
Cc1ncsc1CN1C[C@@H]2COC[C@]2(C(=O)NCC2CC2)C1 | -3.67
CC(C)Cc1ncc2c(n1)CN(c1nc(N(C)C)nc3c1CCCC3)C2 | -0.189
CS(=O)(=O)N1CCN(c2cnnc(N3CCCC3)c2)CC1 | -12.9
OCCN1CCN(Cc2coc(-c3ccccc3Cl)n2)CC1 | -19.7
CCn1cnnc1C1CCN(C(=O)CCCOc2ccccc2)CC1 | -3.85
NC(=O)c1cccc(CC2CCN(C(=O)CO)C2)c1 (configuration not stated) | -3
CCN(Cc1ccc(O)c(C(=O)O)c1)CC1CCOCC1 | -0.0411
Cc1n[nH]c(C)c1-c1cc(-c2ccc[nH]2)nc(N)c1C#N | -10.2
CC(=O)N1CCCC1c1nccnc1Nc1ncccn1 (configuration not stated) | 15.9
CCN(Cc1ccc(Cl)s1)S(=O)(=O)CCOC | -13.3
CN(C)c1nc(N2CCCC2)nc2c1CCN(Cc1nccn1C)CC2 | 8.52
COc1cc(C(C)NCc2scnc2C)ccc1SC(F)F (configuration not stated) | -9.67
CN(Cc1cccnc1)C1COC2(CCN(Cc3nccs3)CC2)C1 (configuration not stated) | -11
O=C(CN1CCNCC1)NCc1ccc2sccc2c1 | 3.14
Cc1ncc(C(=O)NCCNc2ccncc2)s1 | -3.98
CN1CCCc2cc(CNC(=O)c3cccnc3O)ccc21 | -1.9
CCn1cc(S(=O)(=O)N2CCN(S(=O)(=O)c3ccc(Br)s3)CC2)c(C)n1 | -9.33
Cc1cc(CCC(=O)NCc2ncc[nH]2)ccc1Br | -0.138
COCc1noc(-c2nn(-c3ccccc3F)c3c2CCC3)n1 | -6.39
Cc1ccc(OCCN(C)C(=O)CCCC(N)=O)c(C)c1 | -5.93
O=C(c1n[nH]c2c1CCC2)N1CCCC1c1nc(-c2ccccc2)no1 (configuration not stated) | -1.83

SMILES | cytotoxicity at 70.5 h [%]
Cc1ccc(CC(=O)N2CCC(c3nnc4n3CCC4)CC2)cc1 | -8.21
CCC[C@H]1CN(c2nc(CO)cs2)C[C@@H]1NC(=O)C1(COC)CC1 | 4.28
Cc1cc(CNC(=O)C2CCC(=O)N(Cc3ccccc3F)C2)on1 (configuration not stated) | -2.07
Cc1ccccc1CC(=O)N1C[C@@H](O)[C@H](N2CCC(F)(F)CC2)C1 | -7.85
Cc1ccc(OCCN(C)Cc2nccn2C)c(C)c1 | -9.5
COc1ccc(N(C)C(=O)C2CN(C)CCO2)cc1F (configuration not stated) | -12.3
COc1cccc(OC)c1CN1CC(=O)N(c2ccc(C)cc2)CC1C (configuration not stated) | 1.44
COc1ccc2nnc(CCCC(=O)NCc3cccn3C)n2n1 | 6.5
CN(CC1CC1)c1ccc2ccc(C(=O)NC3CCCCC3)cn12 | 12.9
O=C(C1CCCN(Cc2cccc(F)c2)C1)N1CCc2sccc2C1 (configuration not stated) | 0.518
O=C(c1ccoc1)N1CCCn2nnc(COCC3CC3)c2C1 | -4.24
NC(=O)CN(C(=O)c1c[nH]c2ncccc12)C1CCCC1 | 3.16
Cc1n[nH]c(C)c1CN(C)C(C(=O)O)c1ccc2c(c1)OCO2 (configuration not stated) | 6.84
O=C1C(Nc2nccn3cnnc23)CCCN1c1ccccc1Cl (configuration not stated) | -2.45
CCCNC(=O)CNc1ccc2c(c1)N(C(=O)OC(C)(C)C)CCC2 | 2.81
N[C@H]1c2ccccc2C[C@@H]1NC(=O)C1CCN(Cc2ccco2)CC1 | -11.4
Cn1nc(C(=O)NC2(c3ccccc3)CCC2)ccc1=O | 1.95
CC(C)Cc1nc(NC(=O)c2cccnc2)n[nH]1 | -14.7
O=C(NCCn1ccnc1)c1cccc(Br)c1 | -13
COCCN1C[C@@H]2CN(c3ncc(F)cn3)C[C@@H]2C1=O | -47.2
Cn1cc(CN2CCCC(O)C2)c(-c2ccccc2F)n1 (configuration not stated) | -6.51

SMILES | cytotoxicity at 70.5 h [%]
Cn1c(N)c2c(=O)n(C)c(-c3ccccc3)cc2c(C#N)c1=O | -10.5
CCCc1nc(N2CCCC3(CCNC3)C2)c2cnn(C)c2n1 (configuration not stated) | -7.26
CC(c1nc(C(C)(C)C)no1)N1CCN(C(=O)CN2CCOCC2)CC1 (configuration not stated) | -6.71
O=C(c1ccccn1)N1CCC2(CNS(=O)(=O)c3cnccc3O2)C1 (configuration not stated) | 17.6
CC(NC(=O)N(C)CCOc1ccccc1F)c1nncn1C (configuration not stated) | -4.64
O=S(=O)(Nc1cnc(N2CCOCC2)nc1)c1cccc(F)c1 | 1.23
Cc1cnc(N2Cc3cnn(Cc4ccc(F)cc4)c3C2)nc1N(C)C | -0.641
CCc1ccc(CN(CC)Cc2ccc(S(=O)(=O)NC)cc2)cc1 | -1.74
COCCN(C)c1cnn(C)c(=O)c1Br | -14.7
COCCOc1ccc(S(=O)(=O)Nc2cccc(O)c2F)cc1C | -7.45
CCO[C@H]1CC[C@H]2[C@H]1OCCN2C(=O)CC1=CCCCC1 | 24
OC(COCc1ccc2c(c1)OCO2)CN1CC(n2cccn2)C1 (configuration not stated) | 3.04
CNC(=O)NC(=O)C(C)N1CCCc2cc(OC)ccc2C1 (configuration not stated) | -13.9
CCc1cc(N[C@@H](CO)C(N)=O)n2nc(C)c(C)c2n1 | -2.72
COc1cccc(C2CCN2C(=O)c2cc(C(C)C)on2)c1 (configuration not stated) | -0.704
CC(C)N(Cc1nc2c(cnn2C)c(=O)[nH]1)c1ccccc1 | 3.46
Cc1ccn(-c2ccccc2NCc2ccccn2)n1 | -8
CCN(Cc1ccncc1)C1CCCN(Cc2ccc(F)cc2OC)C1 (configuration not stated) | -1.99
CN(C)C(=O)c1c[nH]nc1C1CCN(S(=O)(=O)c2cccc(Cl)c2)CC1 | 9.14
